Results as given in patent US20120071475A1, “UREA DERIVATIVES HAVING PI3K-INHIBITING ACTIVITY” (SHIONOGI & CO., LTD., priority 2009, published 2012).
Converted amounts (≈) assume the structure as drawn. Like-named read-outs stand apart in the source and are kept apart here.

How the values were obtained:
PI3Kγ [1] = molecular target: T1, PI3Kγ (Homo sapiens, UniProt P48736); assay: PI3Kγ inhibitory activity (Ki value); assay type: biochemical
Method: The PI3Kγ inhibitory activity (Ki value) of a compound was evaluated according to the following procedure:
5 μL of a compound solution containing 10% DMSO and […] of a compound was changed to 5 μL of a compound solution containing 10% DMSO and either 200, 64, 20, 6.4, 2, 0.64, or 0.20 μmol/L of the compound (optionally, this is diluted to a lower concentration). Using a method similar to the method for measuring PI3Kγ inhibitory activity, inhibition ratios of PI3Kγ were measured in the presence of the compound at 50, 16, 5, 1.6, 0.5, 0.16, and 0.05 μmol/L (optionally, a lower concentration). Then an IC50 value was calculated by a logistic approximation method or the linear regression method using two concentrations that cross 50% inhibition. Separately, the ATP concentration in the reaction solution (40 μmol/L ATP, 10 mmol/L MgCl2, 5 mmol/L DTT) at the time of the start of a reaction in the absence of the compound was changed to 80, 40, 20, 10, 5, 2.5, 1.25, or 0.625 μmol/L. Then, HTRF ratios were measured by a similar method. The value obtained by subtracting the HTRF ratio at each ATP concentration from the HTRF ratio in the absence of PI-3 kinase y was defined as the value obtained by multiplying reaction rate (v) at each ATP concentration with a constant. The Michaelis-Menten constant Km was then calculated by the Lineweaver-Burk plot method. The Ki value of a compound was calculated by the following formula wherein “μM” denotes “μmol/L.”
Ki value ═IC50 value/(1+test ATP concentration (μM)/Km (μM))

PI3Kα = PI3Kα (Homo sapiens, UniProt P42336); assay: PI3Kα inhibitory activity (Ki value); assay type: biochemical
Method: (§1) According to Example 2 above, after 80 μg/mL PI-3 kinase γ of the enzyme solution (80 μg/mL PI-3 kinase γ, 10 mmol/L MgCl2, 5 mmol/L DTT) was changed to 0.8 μg/mL PI-3 kinase α, an inhibition ratio was calculated by a method similar to the method for measuring PI3Kγ inhibitory activity, and then defined as the PI3Kα inhibitory activity.
The α inhibitory activity (Ki value) of a compound was evaluated according to the following procedure.
According to Example 4 above, a Km value for PI3Kα was determined to calculate a Ki value.

PI3Kβ = PI3Kβ (Homo sapiens, UniProt P42338); assay: PI3Kβ inhibitory activity (Ki value); assay type: biochemical
Method: as §1, with “60” for “0.8”, “β,” for “α, an inhibition ratio was calculated by”, “activity was used to calculate an inhibition ratio, which was” for “activity, and then”, “PI3Kβ” for “PI3Kα”
According to Example 4 above, a Km value for PI3Kβ was determined to calculate a Ki value.

PI3Kδ = PI3Kδ (Homo sapiens, UniProt O00329); assay: PI3Kδ inhibitory activity (Ki value); assay type: biochemical
Method: as §1, with “158” for “0.8”, “δ,” for “α, an inhibition ratio was calculated by”, “activity was used to calculate an inhibition ratio, which was” for “activity, and then”, “PI3Kδ” for “PI3Kα”
According to Example 4 above, a Km value for PI3Kδ was determined to calculate a Ki value.

PI3Kγ [2] = molecular target: T1, PI3Kγ; assay: PI3Kγ inhibitory activity (PI3-kinase HTRF assay, inhibition ratio); assay type: biochemical; settings: 0.5 h, compound at 10 μmol/L; read-out: PI3Kg Inhibition Ratio % (10 μM)
In short: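 Compound at 10 μmol/L preincubated 10 min with PI3Kγ and PIP2 substrate, then reacted with ATP for 30 minutes at room temperature; the compound, substrate and ATP figures as printed (40 μmol/L each) are solution concentrations. HTRF 665/620 nm ratio read after 18 hours. Inhibition ratio calculated against no-compound (100%) and no-enzyme (0%) controls.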

[3] = Metabolic stability test (pooled human liver microsome); assay type: in vitro ADME; settings: percentage of test compound remained after 30 minutes, pooled human liver microsome 0.5 mg protein/mL, 1 mmol/L NADPH, 37° C., compound 0.5 μM
In short: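 Pooled human liver microsomes (0.5 mg protein/mL) incubated with compound and 1 mmol/L NADPH at 37° C. in pH 7.4 Tris buffer for 0 or 30 min. Parent quantified by LC/MS/MS after methanol/acetonitrile quench; value is % remaining at 30 min versus 0 min.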

hERG channel (IKr) = molecular target: T2, hERG channel (IKr) (Homo sapiens, UniProt Q12809); assay: hERG test (whole-cell patch-clamp, IKr in HEK293 cells); assay type: cell-based; settings: human, HEK293 cells expressing hERG channel, pH 7.4, inhibition of maximum tail current (IKr), compound 1 μM
T2 construct: expressed in transfected cells; host or cells: HEK293
In short: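 hERG-expressing HEK293 cells, automated whole-cell patch clamp: hold −80 mV, +50 mV for 2 s, then −50 mV for 2 s to record IKr tail current. Compound in extracellular solution (pH 7.4) for 10 min at room temperature; inhibition of maximum tail current calculated versus pre-application and compared with 0.1% DMSO vehicle.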

[4] = Solubility test (artificial intestinal juice pH 6.8, 1% DMSO); assay type: physicochemical; settings: artificial intestinal juice pH 6.8 with 1% DMSO, fassgf or other biorelevant, kinetic from dmso stock, 25° C.
Method: The solubility of a compound was determined under a condition in which 1% DMSO was added. 10 mmol/L compound solution was prepared using DMSO, and then 6 μL of the compound solution was added to 594 μL of artificial intestinal juice in pH 6.8 (to 250 mL of 0.2 mol/L potassium dihydrogen phosphate reagent solution was added 118 mL of 0.2 mol/L NaOH reagent solution and water to provide a final volume of 1000 mL). After standing at 25° C. for 16 hours, the mixed solution was filtered with suction. The filtrate was diluted twice with methanol/water (1/1), and then a concentration in the filtration was measured with HPLC or LC/MS/MS by the absolute calibration method.

AKT phosphorylation = AKT phosphorylation inhibitory activity in MCP-1 stimulated THP-1 cells (sandwich ELISA); assay type: cell-based, Human; settings: Homo sapiens, compound at 1 μmol/L, MCP-1 stimulation, read-out: AKT phosphorylation inhibition ratio
In short: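 THP-1 cells (6.7×10^6/mL in HBSS) were preincubated with compound at 1 μmol/L for 5 min at 37 °C, then stimulated for 60 s with HBSS containing 1.2 μg/mL MCP-1 and lysed. Phospho-Akt Ser473/AKT1 sandwich ELISA was read at A450. % inhibition: no compound = 100% activity, no MCP-1 = 0%.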

CYP3A4 = molecular target: T3, CYP3A4 (Homo sapiens, UniProt P08684); assay: CYP3A4 fluorescence MBI test; assay type: in vitro ADME; settings: difference in IC50 with 0 or 30 minutes pre-reaction; CYP3A4 expressed in E. coli, substrate 7-BFC
T3 construct: host or cells: E. coli
In short: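 E. coli-expressed CYP3A4 debenzylating 5.6 μmol/L 7-BFC to fluorescent 7-HFC (Ex 420/Em 535 nm) in K-Pi pH 7.4 at 25° C, 15 min reaction. NADPH pre-incubation of 0 or 30 min, with 10-fold dilution before reaction. IC50 from 0.625–20 μmol/L (6 points); (+) for an IC50 shift ≥5 μmol/L, (−) for ≤3 μmol/L.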

[5] = class symbols, read-out: PI3K γ Ki
[6] = class symbols, read-out: PI3K α Ki
[7] = class symbols, read-out: PI3K β Ki
[8] = class symbols, read-out: PI3K δ Ki

PI3Kα, sequence (P42336 whole entry, species assumed): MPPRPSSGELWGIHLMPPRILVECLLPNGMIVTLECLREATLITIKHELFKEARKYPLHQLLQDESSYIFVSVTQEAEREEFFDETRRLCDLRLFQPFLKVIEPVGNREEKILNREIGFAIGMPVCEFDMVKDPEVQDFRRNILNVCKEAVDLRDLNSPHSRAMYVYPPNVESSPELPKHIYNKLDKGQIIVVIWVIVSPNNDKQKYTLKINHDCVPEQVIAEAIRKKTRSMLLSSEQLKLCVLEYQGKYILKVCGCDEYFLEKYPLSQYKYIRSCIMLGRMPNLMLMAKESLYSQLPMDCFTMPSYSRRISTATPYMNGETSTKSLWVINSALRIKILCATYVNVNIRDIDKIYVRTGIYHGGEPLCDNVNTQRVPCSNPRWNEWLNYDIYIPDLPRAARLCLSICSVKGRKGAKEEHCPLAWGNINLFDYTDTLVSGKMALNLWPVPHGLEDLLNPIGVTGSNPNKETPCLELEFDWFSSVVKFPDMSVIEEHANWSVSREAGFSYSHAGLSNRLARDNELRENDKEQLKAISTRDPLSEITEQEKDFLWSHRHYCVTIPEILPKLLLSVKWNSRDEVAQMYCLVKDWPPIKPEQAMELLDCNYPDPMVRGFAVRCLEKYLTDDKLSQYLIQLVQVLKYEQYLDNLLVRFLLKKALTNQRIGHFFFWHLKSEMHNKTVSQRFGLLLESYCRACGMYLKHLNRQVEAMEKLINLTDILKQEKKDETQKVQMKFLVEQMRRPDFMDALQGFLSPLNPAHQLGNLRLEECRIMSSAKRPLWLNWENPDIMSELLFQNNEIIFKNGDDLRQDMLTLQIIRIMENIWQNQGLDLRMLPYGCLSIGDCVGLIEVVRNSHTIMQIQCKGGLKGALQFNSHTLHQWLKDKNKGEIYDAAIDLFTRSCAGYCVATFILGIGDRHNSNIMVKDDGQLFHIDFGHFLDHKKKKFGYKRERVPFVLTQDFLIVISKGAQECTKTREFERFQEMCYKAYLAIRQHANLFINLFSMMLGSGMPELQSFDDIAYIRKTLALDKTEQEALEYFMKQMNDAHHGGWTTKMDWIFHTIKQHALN
PI3Kα, sequence (P27986 whole entry partner, species assumed): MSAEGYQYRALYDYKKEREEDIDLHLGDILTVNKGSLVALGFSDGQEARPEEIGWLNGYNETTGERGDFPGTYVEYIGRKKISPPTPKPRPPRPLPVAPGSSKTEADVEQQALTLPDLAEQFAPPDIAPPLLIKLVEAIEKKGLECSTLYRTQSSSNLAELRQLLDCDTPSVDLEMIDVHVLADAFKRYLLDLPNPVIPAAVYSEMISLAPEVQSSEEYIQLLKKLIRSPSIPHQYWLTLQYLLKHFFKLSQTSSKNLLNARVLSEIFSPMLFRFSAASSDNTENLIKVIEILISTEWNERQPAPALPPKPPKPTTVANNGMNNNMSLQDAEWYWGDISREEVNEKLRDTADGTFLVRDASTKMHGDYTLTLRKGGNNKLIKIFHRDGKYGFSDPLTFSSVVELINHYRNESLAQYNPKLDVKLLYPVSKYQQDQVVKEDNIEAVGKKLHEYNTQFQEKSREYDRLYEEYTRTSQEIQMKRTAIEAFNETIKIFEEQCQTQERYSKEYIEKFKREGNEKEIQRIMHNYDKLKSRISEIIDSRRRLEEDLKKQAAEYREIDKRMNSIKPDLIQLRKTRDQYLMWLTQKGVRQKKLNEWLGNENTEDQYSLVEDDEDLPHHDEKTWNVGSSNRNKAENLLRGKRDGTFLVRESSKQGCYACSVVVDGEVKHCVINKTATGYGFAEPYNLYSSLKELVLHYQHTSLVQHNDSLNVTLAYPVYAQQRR
T1 sequence (P48736 whole entry, species assumed): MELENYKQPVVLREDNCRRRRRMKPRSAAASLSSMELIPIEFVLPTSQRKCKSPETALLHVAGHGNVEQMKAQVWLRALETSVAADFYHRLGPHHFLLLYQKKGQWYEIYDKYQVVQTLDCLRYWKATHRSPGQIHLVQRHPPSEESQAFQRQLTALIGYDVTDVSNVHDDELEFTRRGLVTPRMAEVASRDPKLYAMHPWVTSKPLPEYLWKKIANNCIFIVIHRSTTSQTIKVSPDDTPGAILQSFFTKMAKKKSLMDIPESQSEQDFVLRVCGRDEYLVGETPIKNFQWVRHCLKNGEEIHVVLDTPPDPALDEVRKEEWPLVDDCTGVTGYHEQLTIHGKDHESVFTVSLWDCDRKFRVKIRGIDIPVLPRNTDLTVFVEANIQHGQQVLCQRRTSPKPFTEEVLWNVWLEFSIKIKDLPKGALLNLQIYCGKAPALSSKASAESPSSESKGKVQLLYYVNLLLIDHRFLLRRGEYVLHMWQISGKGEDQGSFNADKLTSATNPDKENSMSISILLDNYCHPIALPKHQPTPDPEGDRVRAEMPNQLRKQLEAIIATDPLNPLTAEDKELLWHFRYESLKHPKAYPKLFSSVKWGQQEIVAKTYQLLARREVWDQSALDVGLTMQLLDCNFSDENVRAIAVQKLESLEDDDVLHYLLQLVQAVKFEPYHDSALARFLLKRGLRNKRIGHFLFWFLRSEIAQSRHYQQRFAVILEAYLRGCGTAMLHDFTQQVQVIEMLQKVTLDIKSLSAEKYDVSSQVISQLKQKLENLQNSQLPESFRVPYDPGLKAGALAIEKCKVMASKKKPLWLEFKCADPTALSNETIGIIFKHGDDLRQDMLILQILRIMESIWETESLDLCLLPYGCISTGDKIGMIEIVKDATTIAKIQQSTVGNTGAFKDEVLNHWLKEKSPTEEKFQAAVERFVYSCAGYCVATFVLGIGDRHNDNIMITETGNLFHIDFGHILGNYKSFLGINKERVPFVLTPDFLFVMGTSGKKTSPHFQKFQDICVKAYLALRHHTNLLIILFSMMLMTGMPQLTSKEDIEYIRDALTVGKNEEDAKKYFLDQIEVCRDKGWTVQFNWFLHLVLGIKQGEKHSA
PI3Kβ, sequence (P42338 whole entry, species assumed): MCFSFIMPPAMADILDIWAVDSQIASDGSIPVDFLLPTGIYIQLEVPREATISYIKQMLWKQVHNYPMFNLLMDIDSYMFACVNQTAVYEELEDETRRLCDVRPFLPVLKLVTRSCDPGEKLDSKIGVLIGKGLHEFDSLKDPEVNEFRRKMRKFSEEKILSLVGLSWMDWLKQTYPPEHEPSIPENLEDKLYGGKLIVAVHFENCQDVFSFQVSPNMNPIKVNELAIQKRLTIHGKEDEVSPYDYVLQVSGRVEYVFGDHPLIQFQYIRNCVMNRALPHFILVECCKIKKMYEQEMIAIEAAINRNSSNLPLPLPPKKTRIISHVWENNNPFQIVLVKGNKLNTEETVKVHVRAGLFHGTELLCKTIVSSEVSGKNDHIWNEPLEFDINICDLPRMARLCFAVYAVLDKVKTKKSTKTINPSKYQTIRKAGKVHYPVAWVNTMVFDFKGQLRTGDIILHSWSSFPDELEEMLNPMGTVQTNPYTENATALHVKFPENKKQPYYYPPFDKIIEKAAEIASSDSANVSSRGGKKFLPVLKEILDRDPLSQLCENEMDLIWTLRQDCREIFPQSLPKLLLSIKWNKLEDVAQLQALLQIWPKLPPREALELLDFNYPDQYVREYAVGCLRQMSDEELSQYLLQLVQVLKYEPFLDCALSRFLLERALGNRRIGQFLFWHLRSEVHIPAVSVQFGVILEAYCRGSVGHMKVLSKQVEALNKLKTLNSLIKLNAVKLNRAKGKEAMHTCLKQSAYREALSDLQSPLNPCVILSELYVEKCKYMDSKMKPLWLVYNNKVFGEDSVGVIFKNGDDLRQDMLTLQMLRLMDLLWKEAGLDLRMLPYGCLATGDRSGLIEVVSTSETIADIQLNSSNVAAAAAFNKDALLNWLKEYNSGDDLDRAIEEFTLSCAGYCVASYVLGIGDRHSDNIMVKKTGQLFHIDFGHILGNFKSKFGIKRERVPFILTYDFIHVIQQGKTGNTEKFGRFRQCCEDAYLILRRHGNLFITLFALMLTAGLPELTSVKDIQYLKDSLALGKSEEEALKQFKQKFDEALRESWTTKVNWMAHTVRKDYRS
PI3Kβ, sequence (P27986 whole entry partner, species assumed): as the sequence (P27986 whole entry partner, species assumed) above
PI3Kδ, sequence (O00329 whole entry, species assumed): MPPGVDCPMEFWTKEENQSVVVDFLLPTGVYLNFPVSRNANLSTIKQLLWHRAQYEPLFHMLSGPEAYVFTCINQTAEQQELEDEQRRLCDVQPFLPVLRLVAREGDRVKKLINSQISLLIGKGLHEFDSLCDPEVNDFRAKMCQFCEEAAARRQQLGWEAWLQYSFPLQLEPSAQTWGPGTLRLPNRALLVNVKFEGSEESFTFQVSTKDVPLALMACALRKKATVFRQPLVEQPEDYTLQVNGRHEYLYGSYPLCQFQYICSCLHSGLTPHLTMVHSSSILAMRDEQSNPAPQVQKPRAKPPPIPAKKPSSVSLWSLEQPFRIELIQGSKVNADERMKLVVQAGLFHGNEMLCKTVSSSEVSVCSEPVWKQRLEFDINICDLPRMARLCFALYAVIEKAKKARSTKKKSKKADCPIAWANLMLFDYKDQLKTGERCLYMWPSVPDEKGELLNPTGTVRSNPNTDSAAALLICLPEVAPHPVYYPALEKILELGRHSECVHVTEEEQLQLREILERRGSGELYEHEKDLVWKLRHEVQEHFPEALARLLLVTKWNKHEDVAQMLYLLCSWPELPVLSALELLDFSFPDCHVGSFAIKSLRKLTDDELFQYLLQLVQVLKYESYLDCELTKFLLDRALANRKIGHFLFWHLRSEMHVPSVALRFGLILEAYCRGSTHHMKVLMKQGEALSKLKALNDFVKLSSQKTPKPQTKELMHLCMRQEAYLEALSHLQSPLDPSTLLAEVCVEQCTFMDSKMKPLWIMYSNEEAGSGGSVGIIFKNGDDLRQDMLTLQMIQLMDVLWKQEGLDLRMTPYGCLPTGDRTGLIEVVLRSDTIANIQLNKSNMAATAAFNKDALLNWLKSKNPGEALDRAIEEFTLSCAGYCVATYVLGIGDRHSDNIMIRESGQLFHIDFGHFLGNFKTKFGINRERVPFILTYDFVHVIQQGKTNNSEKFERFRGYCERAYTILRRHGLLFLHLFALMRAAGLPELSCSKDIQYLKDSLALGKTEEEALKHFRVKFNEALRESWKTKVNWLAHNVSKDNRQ
PI3Kδ, sequence (P27986 whole entry partner, species assumed): as the sequence (P27986 whole entry partner, species assumed) above

Structure (SMILES)	Ki (PI3Kγ [1]; [5]) [µM]	Ki (PI3Kγ [1]; read-out: PI3Kγ Ki value) [µM]	Ki (PI3Kα; [6]) [µM]	Ki (PI3Kβ; [7]) [µM]	Ki (PI3Kδ; [8]) [µM]	inhibition at 10 µM (PI3Kγ [2]) [%]	Ki (PI3Kα; read-out: PI3Kα Ki value) [µM]	Ki (PI3Kβ; read-out: PI3Kβ Ki value) [µM]	Ki (PI3Kδ; read-out: PI3Kδ Ki value) [µM]	hLMS_ox(at 0.5 μM) % [3] [%]	solubility at 16 h [4] [µM]	inhibition at 10 min, 1 µM (hERG channel (IKr)) [%]	inhibition at 1 µM (AKT phosphorylation) [%]	MBI (CYP3A4)
COc1cccc(-c2ccc3nc(NC(=O)Nc4ccccc4C(=O)NC(C)C)cn3n2)c1 [Compound I-123]	≤ 0.03	0.025	> 3	≤ 3	≤ 0.3									
CC(C)CCc1ccccc1NC(=O)Nc1cc2n(n1)CCN2c1ccc2c(c1)CCN(C)C2=O [Compound I-113]	≤ 3	2.3	> 3	> 3	≤ 3									
COc1cc(C2(F)CCc3nc(NC(=O)Nc4ccccc4C(=O)NC(C)C)sc3C2)nc(OC)n1 (stereo not drawn) [Compound I-83]	≤ 0.3	0.11	> 3	> 3	> 3	≥ 95	> 13	> 12	> 12	89.1		3.3		
COc1cc(N2CCc3nc(NC(=O)NC4=C(C(=O)NC(C)(C)C)CCC4)sc3C2)nc(OC)n1 [Compound I-28]	≤ 0.3	0.047	> 3	≤ 3	≤ 3	≥ 95								
CC(C)CCOc1ccccc1NC(=O)Nc1cc2n(n1)CCN2c1ccc2c(c1)CCN(C)C2=O [Compound I-112]	≤ 3	1.1	> 3	> 3	≤ 3		7.5	> 11	2.1					
COc1cc(N2CCc3nc(NC(=O)Nc4ccccc4C(=O)N(C)C(C)C)sc3C2)nc(OC)n1 [Compound I-13]						≥ 95					15.4 (≈ 7.88 µg/mL)			
COc1cc(N2CCc3nc(NC(=O)Nc4ccccc4C(=O)NC(C)CO)sc3C2)cnc1OC (stereo not drawn) [Compound I-104]										103	39.6 (≈ 20.3 µg/mL)			
COc1cc(N2CCc3nc(NC(=O)Nc4ccccc4C4=NC(C)(C)CO4)sc3C2)nc(OC)n1 [Compound I-14]	≤ 0.3	0.054	> 3	> 3	> 3	94								(−) (When 3 μmol/L or less, the compound is shown as (−))
COc1cc(N2CCc3nc(NC(=O)Nc4ccccc4OCCN(C)C)sc3C2)nc(OC)n1 [Compound I-76]											26.3 (≈ 13.1 µg/mL)			
COc1cc(N2CCc3nc(NC(=O)Nc4ccccc4OCCC(C)(C)C(=O)O)sc3C2)nc(OC)n1 [Compound I-100]						≥ 95				89.3	34.4 (≈ 18.7 µg/mL)			

Second part, led by results:

Ki (PI3Kγ [1]; [5]) [µM]	Ki (PI3Kγ [1]; read-out: PI3Kγ Ki value) [µM]	Ki (PI3Kα; [6]) [µM]	Ki (PI3Kβ; [7]) [µM]	Ki (PI3Kδ; [8]) [µM]	inhibition at 10 µM (PI3Kγ [2]) [%]	Ki (PI3Kα; read-out: PI3Kα Ki value) [µM]	Ki (PI3Kβ; read-out: PI3Kβ Ki value) [µM]	Ki (PI3Kδ; read-out: PI3Kδ Ki value) [µM]	hLMS_ox(at 0.5 μM) % [3] [%]	solubility at 16 h [4] [µM]	Structure (SMILES)	inhibition at 10 min, 1 µM (hERG channel (IKr)) [%]	inhibition at 1 µM (AKT phosphorylation) [%]	MBI (CYP3A4)
≤ 0.3	0.058	> 3	> 3	> 3							COc1cc(-c2ccc3nc(NC(=O)Nc4ccccc4OCCC(C)C)sc3c2)nc(OC)n1 [Compound I-213]			
										> 50	COc1cc(N2CCc3nc(NC(=O)NN4CCC[C@H]4C(=O)NC(C)C)sc3C2)nc(OC)n1 [Compound I-179]			
≤ 0.03	0.0036	> 3	≤ 3	≤ 3	≥ 95						COc1nc(Cl)cc(N2CCc3nc(NC(=O)Nc4ccccc4C(=O)NC4CCCC4O)sc3C2)n1 (stereo not drawn) [Compound I-174]		81	
					≥ 95				97.9	10 (≈ 4.53 µg/mL)	CC(C)NC(=O)c1ccccc1NC(=O)Nc1nc2c(s1)CN(c1cc[nH]c(=O)c1)CC2 [Compound I-178]			
≤ 0.03	0.0094	> 3	> 3	> 3	≥ 95						Cc1cc(N2Cc3sc(NC(=O)Nc4ccccc4C(=O)NC(C)C)nc3C(C)C2)nc(Cl)n1 (stereo not drawn) [Compound I-229]			
≤ 0.03	0.015	> 3	≤ 0.3	> 3	≥ 95						COc1cncc(-c2ccc3nc(NC(=O)Nc4ccccc4OCCC(C)C)sc3n2)c1 [Compound I-225]			(−) (When 3 μmol/L or less, the compound is shown as (−))
≤ 0.3	0.23	> 3	≤ 3	> 3	≥ 95						COc1cncc(-c2ccc3nc(NC(=O)Nc4ccccc4OCCC(C)C)nn3c2)c1 [Compound I-216]			
≤ 0.03	0.013	≤ 3	≤ 0.3	≤ 0.3					103		CC(C)NC(=O)c1ccccc1NC(=O)Nc1cn2nc(-c3cccc(S(C)(=O)=O)c3)ccc2n1 [Compound I-125]	1.3		
					87					36.8 (≈ 15.4 µg/mL)	CC(=O)c1cccc(-c2cc(NC(=O)Nc3ccccc3C(=O)NC(C)C)nn2C)c1 [Compound I-227]			
≤ 0.3	0.061	> 3	≤ 3	≤ 3							CC(C)CCOc1ccccc1NC(=O)Nc1cn2nc(-c3cccc(S(C)(=O)=O)c3)ccc2n1 [Compound I-126]			
